Results published in ChEMBL document CHEMBL1201862, “PubChem BioAssay data set” (2004).
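Dose response: 5 concentrations. Exposure: 48 h. Format: 96-well plates. Endpoint: linear interpolation; highest concentration if not reached. GI50 is the concentration that inhibits growth by half.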 Calls of active or inactive are those of the source. Cut-off read from the data, not from the text of the source: active = GI50 up to about 1.1 µM and inactive = higher.

Legend:
Assay in all cases: NCI-60 cell line screen, 48 h
IGROV-1 = test system: IGROV-1
SNB-75 = test system: SNB-75
BT-549 = test system: BT-549
UO-31 = test system: UO-31
KM12 = test system: KM12
ACHN = test system: ACHN
SF-295 = test system: SF-295
SF-268 = test system: SF-268
786-0 = test system: 786-0
HOP-62 = test system: HOP-62
CCRF-CEM = test system: CCRF-CEM
MOLT-4 = test system: MOLT-4
NCI-H460 = test system: NCI-H460
SNB-19 = test system: SNB-19
COLO 205 = test system: COLO 205
HOP-92 = test system: HOP-92
OVCAR-8 = test system: OVCAR-8
SN12C = test system: SN12C
TK-10 = test system: TK-10
SK-OV-3 = test system: SK-OV-3
HCT-15 = test system: HCT-15
NCI-H226 = test system: NCI-H226
CAKI-1 = test system: CAKI-1
HCC 2998 = test system: HCC 2998
NCI/ADR-RES = test system: NCI/ADR-RES
Hs-578T = test system: Hs-578T
HT-29 = test system: HT-29
M14 = test system: M14
NCI-H23 = test system: NCI-H23
SK-MEL-5 = test system: SK-MEL-5
RPMI-8226 = test system: RPMI-8226
SK-MEL-2 = test system: SK-MEL-2
EKVX = test system: EKVX
SR = test system: SR
DU-145 = test system: DU-145
A549 = test system: A549
T47D = test system: T47D
SF-539 = test system: SF-539
Malme-3M = test system: Malme-3M
UACC-257 = test system: UACC-257
SW-620 = test system: SW-620
SK-MEL-28 = test system: SK-MEL-28
HCT-116 = test system: HCT-116
PC-3 = test system: PC-3
MCF7 = test system: MCF7
MDA-MB-435 = test system: MDA-MB-435
HL-60 = test system: HL-60
OVCAR-4 = test system: OVCAR-4
MDA-MB-231 = test system: MDA-MB-231
OVCAR-3 = test system: OVCAR-3
NCI-H522 = test system: NCI-H522
LOX IMVI = test system: LOX IMVI
OVCAR-5 = test system: OVCAR-5
U-251 = test system: U-251
UACC-62 = test system: UACC-62
MDA-N = test system: MDA-N
K562 = test system: K562
RXF 393 = test system: RXF 393
A498 = test system: A498

Measured: GI50

OCCCCCCCCCCCOc1ccc(C2OCC3(CC=CCC3)CO2)cc1 (stereo unspecified)
active: SR 0.43 µM
15.2 µM: HCT-15
inactive: IGROV-1 16.1 µM | SNB-75 11.8 µM | BT-549 15 µM | UO-31 17.5 µM | KM12 13 µM | ACHN 17.5 µM | SF-295 17.6 µM | SF-268 17.9 µM | 786-0 13.8 µM | HOP-62 14.4 µM | CCRF-CEM 11 µM | MOLT-4 34.2 µM | NCI-H460 16.9 µM | SNB-19 19.9 µM | COLO 205 22 µM | HOP-92 16.9 µM | OVCAR-8 17.2 µM | SN12C 15 µM | TK-10 16.9 µM | SK-OV-3 19.3 µM | NCI-H226 16.6 µM | CAKI-1 17.4 µM | HCC 2998 17.9 µM | NCI/ADR-RES 14.7 µM | Hs-578T 7.87 µM | HT-29 3.85 µM | M14 11.1 µM | NCI-H23 16.4 µM | SK-MEL-5 16.4 µM | RPMI-8226 > 100 µM | SK-MEL-2 38.1 µM | EKVX 10.6 µM | DU-145 16.2 µM | A549 17.1 µM | T47D 13.3 µM | SF-539 19.1 µM | Malme-3M 18.1 µM | UACC-257 16.8 µM | SW-620 16 µM | SK-MEL-28 16.9 µM | HCT-116 15.8 µM | PC-3 4.07 µM | MCF7 4.88 µM | MDA-MB-435 17.9 µM | HL-60 7.29 µM | OVCAR-4 15.7 µM | MDA-MB-231 16.9 µM | OVCAR-3 19.1 µM | NCI-H522 5.08 µM | LOX IMVI 11.7 µM | OVCAR-5 19.3 µM | U-251 13.9 µM | UACC-62 17.1 µM | MDA-N 15.9 µM

O=C(C/N=C(\CN(c1ccccc1)c1ccccc1)Oc1ccc(Cl)cc1Cl)n1ccnc1
> 100 µM: HCT-15
inactive: IGROV-1 > 100 µM | SNB-75 > 100 µM | BT-549 > 100 µM | UO-31 > 100 µM | K562 > 100 µM | KM12 > 100 µM | ACHN > 100 µM | SF-295 > 100 µM | SF-268 > 100 µM | 786-0 > 100 µM | HOP-62 > 100 µM | CCRF-CEM > 100 µM | MOLT-4 > 100 µM | NCI-H460 > 100 µM | SNB-19 > 100 µM | COLO 205 > 100 µM | HOP-92 63 µM | OVCAR-8 > 100 µM | SN12C > 100 µM | TK-10 > 100 µM | SK-OV-3 > 100 µM | NCI-H226 > 100 µM | NCI/ADR-RES > 100 µM | Hs-578T > 100 µM | HT-29 > 100 µM | M14 > 100 µM | NCI-H23 > 100 µM | SK-MEL-5 > 100 µM | RPMI-8226 > 100 µM | SK-MEL-2 > 100 µM | EKVX > 100 µM | SR > 100 µM | DU-145 > 100 µM | RXF 393 > 100 µM | A549 > 100 µM | T47D > 100 µM | SF-539 > 100 µM | Malme-3M > 100 µM | UACC-257 > 100 µM | SW-620 > 100 µM | SK-MEL-28 > 100 µM | HCT-116 > 100 µM | PC-3 > 100 µM | MCF7 > 100 µM | MDA-MB-435 > 100 µM | OVCAR-4 > 100 µM | MDA-MB-231 > 100 µM | OVCAR-3 > 100 µM | LOX IMVI > 100 µM | OVCAR-5 > 100 µM | U-251 > 100 µM | A498 > 100 µM | UACC-62 > 100 µM | MDA-N > 100 µM
